The target of the assay is T1, mouse Oatp1a1 (Mus musculus, UniProt Q9QXZ6).
T1 sequence (Q9QXZ6 1-670): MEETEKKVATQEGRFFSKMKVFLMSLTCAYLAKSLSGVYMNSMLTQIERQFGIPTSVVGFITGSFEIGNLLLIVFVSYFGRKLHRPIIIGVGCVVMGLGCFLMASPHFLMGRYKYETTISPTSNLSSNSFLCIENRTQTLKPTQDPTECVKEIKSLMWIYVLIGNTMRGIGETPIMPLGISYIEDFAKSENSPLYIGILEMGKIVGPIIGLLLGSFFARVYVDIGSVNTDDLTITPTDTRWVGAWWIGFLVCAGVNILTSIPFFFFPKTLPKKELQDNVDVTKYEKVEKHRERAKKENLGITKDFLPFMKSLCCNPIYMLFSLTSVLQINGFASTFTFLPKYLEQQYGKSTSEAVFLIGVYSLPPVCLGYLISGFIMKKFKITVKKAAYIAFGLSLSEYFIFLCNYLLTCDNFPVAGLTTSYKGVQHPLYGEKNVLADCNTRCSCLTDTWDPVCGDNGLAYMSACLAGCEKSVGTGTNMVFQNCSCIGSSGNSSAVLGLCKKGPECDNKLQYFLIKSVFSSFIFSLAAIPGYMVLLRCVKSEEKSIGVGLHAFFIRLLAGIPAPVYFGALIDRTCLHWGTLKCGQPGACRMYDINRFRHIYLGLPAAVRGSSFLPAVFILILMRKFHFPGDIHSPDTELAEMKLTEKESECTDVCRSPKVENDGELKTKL
The note with it: inhibitor at 100 μM.

Protocol: 293FT cells were purchased from Thermo Fisher Scientific, Inc.. The cells were grown in Dulbecco's modified Eagle medium (supplemented with 4.5 g/L glucose and 2 mM L‐glutamine) at 37°C, 5% CO2, and 95% humidity. The cells were passaged 3 times per week by harvesting cells using trypsin and plating at a density of 1.0 × 10^4 cells/cm^2 in a 10 cm cell culture plate for maintenance culture. The 293FT cells were detached using trypsin and re‐seeded at a density of 2.5 × 10^4 cells/cm^2 in BioCoat™ Collagen I 6‐well plates (Corning Inc.) for transfection and then treated with 1.2 μg of plasmid vector and 3.2 μl of Lipofectamine™ 2000 Transfection Reagent (Thermo Fisher Scientific, Inc.) according to the manufacturer's instructions. After a 3‐h treatment, the transfection medium was replaced with a fresh cell culture medium and incubated at 37°C with 95% humidity and 5% CO2 until ready for the assay.
Transport experiments were conducted approximately 24 h post‐transfection. The experiments were initiated by aspirating culture medium and addition of pre‐warmed radiolabeled substrate solution (final 1.0% of acetonitrile or 0.9% of ethanol in phosphate‐buffered saline (PBS[−])) to each well. After a 10‐min incubation, cells were washed twice with 1 ml of ice‐cold PBS(−) and lysed with 700 μl of 1.0 M NaOH for 3 h or more at room temperature. The lysate was transferred to a 1.5‐ml tube, and neutralized with 350 μl of 2.0 M HCl and 350 μl of 2.0% sodium dodecyl sulfate (SDS) solution. From the lysate, 1.0 ml was transferred to a vial containing 10 ml of Emulsifier Scintillator Plus to measure the radioactivity in the LSC. The protein concentration of the cell lysate was also measured using a Pierce™ BCA Protein Assay Kit (Thermo Fisher Scientific, Inc.), which was used to normalize, according to the cell number, the radioactivity in the cell lysate extract. The protein assay was performed in duplicate. Each sample type was assayed in triplicate wells, and each run was performed twice. […] Each sample type was assayed in triplicate wells.

With `CO[C@H]1/C=C/O[C@@]2(C)Oc3c(C)c(O)c4c(O)c(c(/C=N/N5CCN(C)CC5)c(O)c4c3C2=O)NC(=O)/C(C)=C\C=C\[C@H](C)[C@H](O)[C@@H](C)[C@@H](O)[C@@H](C)[C@H](OC(C)=O)[C@@H]1C` [RIF, Rifampicin], the “Uptake of S‐3100‐CA, % of that by vehicle‐treated cells” value is “less than 40%”.
